Converted amounts (≈) assume the structure as drawn. Like-named read-outs stand apart in the source and are kept apart here.
Key:
M. hyorhinis BST-7 = test: Antimycoplasma activity, twofold agar dilution MIC; type: cell-based; settings: Mesomycoplasma hyorhinis, BST7, 48 h, read-out: minimum inhibitory concentrations (MIC)
Procedure: (§1) The figures in the table show minimum inhibitory concentrations (MIC), (μg/ml), calculated for free base. Minimum inhibitory concentrations (MIC) were determined by the twofold agar dilution method. The media used were Chanock broth and agar [PPLD broth and agar (Difco) supplemented with 20 % horse serum and 10 % fresh yeast extract]. A 2-3 day broth culture of organisms was diluted with Chanock broth to a cell density of about 10^6 cells/ml. One loopful (about […]) of the organism dilution was spotted onto 10-ml drug containing Chanock agar in petri dishes using a multiple inoculator ([…] International). […] Incubation was performed anaerobically using the […] anaerobic system (BBL) for M. buccale, M. fermentans, M. hominis, M. orale and M. salivarium, and aerobically for other Mycoplasma spp. The MIC was defined as the lowest compound concentration at which no growth of organism was detected.

M. buccale CH-20249 = test: Antimycoplasma activity, twofold agar dilution MIC; type: cell-based; settings: 48 h, read-out: minimum inhibitory concentrations (MIC)
Procedure: as §1

M. hominis PG-21 = test: Antimycoplasma activity, twofold agar dilution MIC; type: cell-based; settings: Metamycoplasma hominis, PG21, 48 h, read-out: minimum inhibitory concentrations (MIC)
Procedure: as §1

M. orale CH-19299 = test: Antimycoplasma activity, twofold agar dilution MIC; type: cell-based; settings: po, 48 h, read-out: minimum inhibitory concentrations (MIC)
Procedure: as §1

M. pneumoniae Mac = test: Antimycoplasma activity, twofold agar dilution MIC; type: cell-based; settings: Mycoplasmoides pneumoniae, 168 h, read-out: minimum inhibitory concentrations (MIC)
Procedure: as §1

A. laidlawii PG-8 = test: Antimycoplasma activity, twofold agar dilution MIC; type: cell-based; settings: Acholeplasma laidlawii, PG8, 48 h, read-out: minimum inhibitory concentrations (MIC)
Procedure: as §1

M. fermentans PG-18 = test: Antimycoplasma activity, twofold agar dilution MIC; type: cell-based; settings: Mycoplasmopsis fermentans, PG18, 48 h, read-out: minimum inhibitory concentrations (MIC)
Procedure: as §1

M. salivarium PG-20 = test: Antimycoplasma activity, twofold agar dilution MIC; type: cell-based; settings: 48 h, read-out: minimum inhibitory concentrations (MIC)
Procedure: as §1

M. arginini G-230 = test: Antimycoplasma activity, twofold agar dilution MIC; type: cell-based; settings: 48 h, read-out: minimum inhibitory concentrations (MIC)
Procedure: as §1

S. pyogenes A65 = test: In vitro antibacterial activity, twofold agar-dilution MIC; type: cell-based; settings: Streptococcus pyogenes, read-out: minimum inhibitory concentrations (MIC)
Procedure: (§2) The figures in the table show minimum inhibitory concentrations (MIC) (µg/ml), calculated for free base. […] One loopful of an overnight culture of test organisms in Mueller-Hinton broth was inoculated onto 10 ml drug- containing agar layers in petri dishes. Bacterial inocula contained approximately 10⁶ colonyl-forming units. […] The MIC was defined as the lowest drug concentration which prevented visible bacterial growth.

S. aureus No. 80 = test: as above; type: cell-based; settings: Staphylococcus aureus, read-out: minimum inhibitory concentrations (MIC)
Procedure: as §2

S. epidermidis No. 8 = test: as above; type: cell-based; settings: Staphylococcus epidermidis, read-out: minimum inhibitory concentrations (MIC)
Procedure: as §2

E. coli NIHJ JC-2 = test: as above; type: cell-based; settings: Escherichia coli, read-out: minimum inhibitory concentrations (MIC)
Procedure: as §2

P. aeruginosa 12 = test: as above; type: cell-based; settings: read-out: minimum inhibitory concentrations (MIC)
Procedure: as §2

S. marcescens S-9 = test: as above; type: cell-based; settings: Serratia marcescens, read-out: minimum inhibitory concentrations (MIC)
Procedure: as §2

E. coli P-5101 = test: as above; type: cell-based; settings: Escherichia coli, read-out: minimum inhibitory concentrations (MIC)
Procedure: as §2

S. aureus 209 JC-1 = test: as above; type: cell-based; settings: Staphylococcus aureus, read-out: minimum inhibitory concentrations (MIC)
Procedure: as §2

S. aureus Terajima = test: as above; type: cell-based; settings: Staphylococcus aureus, read-out: minimum inhibitory concentrations (MIC)
Procedure: as §2

[1] = test system: C. Trachomatics G/ur 1317; test: Antichlamydia activity, MIC in McCoy cells (inclusion bodies); type: cell-based; settings: read-out: minimum inhibitory concentrations (MIC)
Procedure: (§3) The figures in the table show minimum inhibitory concentrations (MIC), (μg/ml), calculated for free base. Minimum inhibitory concentrations (MIC) were determined as follows. […] The cells were trypsinized and suspended in the same culture medium at a cell concentration of 1-2 x 10^5 cells/ml. One ml of the cell suspension was pipetted into flat-bottomed plastic tubes (14 mm in diameter) containing a cover slip (12 mm in diameter). The tubes were incubated in 5 % CO2-air at 36 °C for 20 hours. One-half ml of a chlamydial suspension (ca. 1-4 x 103 inclusion body forming units) was added into each tube, which was then centrifuged at 1500 x g for 60 minutes. The tubes were incubated for 1 hour at 36 °C. […] After further incubation at 36 °C for 40-48 hours, the cells on the cover glasses were stained with the Giemsa's solution. […] The MIC was defined as the lowest drug concentration where there were no inclusion bodies in all the cells on the cover slip.

[2] = test system: C. Trachomatics G/ur 1242; test: as above; type: cell-based; settings: read-out: minimum inhibitory concentrations (MIC)
Procedure: as §3

[3] = test system: C. Trachomatics G/ur 1448; test: as above; type: cell-based; settings: read-out: minimum inhibitory concentrations (MIC)
Procedure: as §3

C. Trachomatics G/ur 931 = test: as above; type: cell-based; settings: read-out: minimum inhibitory concentrations (MIC)
Procedure: as §3

in vivo = settings: mouse, po, orally given to male mice (ddY), dead mice counted after 7 days, Behrens-Kaerber method, read-out: LD₅₀
Procedure: A suspension containing each of compounds of this invention in various concentrations was orally given to male mice (ddY) at a dose of 0.1 ml per 10 g of body weight. The number of dead mice was counted after 7 days, and the value of median lethal dose (LD₅₀, mg/kg) was calculated in accordance with the Behrens-Kaerber method.

[4] = S. pyogenes A65, Mueller-Hinton agar, 20-hour incubation at 37 °C, calculated for free base
[5] = S. aureus No. 80, Mueller-Hinton agar, 20-hour incubation at 37 °C, calculated for free base
[6] = S. epidermidis No. 8, Mueller-Hinton agar, 20-hour incubation at 37 °C, calculated for free base
[7] = NIHJJC2, E. coli NIHJ JC-2, Mueller-Hinton agar, 20-hour incubation at 37 °C, calculated for free base
[8] = Pseudomonas aeruginosa, P. aeruginosa 12, Mueller-Hinton agar, 20-hour incubation at 37 °C, calculated for free base
[9] = S9, S. marcescens S-9, Mueller-Hinton agar, 20-hour incubation at 37 °C, calculated for free base
[10] = P5101, E. coli P-5101, Mueller-Hinton agar, 20-hour incubation at 37 °C, calculated for free base
[11] = 209JC1, S. aureus 209 JC-1, Mueller-Hinton agar, 20-hour incubation at 37 °C, calculated for free base
[12] = S. aureus Terajima, Mueller-Hinton agar, 20-hour incubation at 37 °C, calculated for free base
[13] = C. Trachomatics G/ur 1317, McCoy cells, 36 °C for 40-48 hours, calculated for free base
[14] = C. Trachomatics G/ur 1242, McCoy cells, 36 °C for 40-48 hours, calculated for free base
[15] = C. Trachomatics G/ur 1448, McCoy cells, 36 °C for 40-48 hours, calculated for free base
[16] = C. Trachomatics G/ur 931, McCoy cells, 36 °C for 40-48 hours, calculated for free base

Work on `Cl.O=C(O)c1cn(C2CC2)c2cc(N3CCNCC3)c(F)cc2c1=O` [Compound A, 1-cyclopropyl-6-fluoro-7-(1-piperazinyl)-1,4-dihydro-4-oxoquinoline-3-carboxylic acid hydrochloride] yielded an MIC (M. hyorhinis BST-7) of 0.39 µg/mL, an MIC (M. buccale CH-20249) of 0.39 µg/mL and an MIC (M. hominis PG-21) of 1.56 µg/mL. The MIC (M. orale CH-19299) was 1.56 µg/mL, the MIC (M. pneumoniae Mac) was 0.78 µg/mL and the MIC (A. laidlawii PG-8) was 0.39 µg/mL. For the same compound, the MIC (M. fermentans PG-18) was 0.2 µg/mL, the MIC (M. salivarium PG-20) was 3.13 µg/mL and the MIC (M. arginini G-230) was 0.39 µg/mL. It also gave an MIC (S. pyogenes A65; A65, 20 h) of 0.2 µg/mL, an MIC (S. aureus No. 80; NO.80, 20 h) of 0.39 µg/mL and an MIC (S. epidermidis No. 8; NO.8, 20 h) of 0.1 µg/mL. The MIC (E. coli NIHJ JC-2; NIHJJC2, 20 h) was 0.0063 µg/mL, the MIC (P. aeruginosa 12; Pseudomonas aeruginosa, 12, 20 h) was 0.1 µg/mL and the MIC (S. marcescens S-9; S9, 20 h) was 0.05 µg/mL. For the same compound, the MIC (E. coli P-5101; P5101, 20 h) was 0.0063 µg/mL, the MIC (S. aureus 209 JC-1; 209JC1, 20 h) was 0.1 µg/mL and the MIC (S. aureus Terajima; 20 h) was 0.1 µg/mL. It also gave an MIC [1] of 2 µg/mL, an MIC [2] of 1 µg/mL and an MIC [3] of 1 µg/mL. The MIC (C. Trachomatics G/ur 931) was 1 µg/mL.
Compound `Cc1c(F)c(N2CCNCC2)c(F)c2c1c(=O)c(C(=O)O)cn2C1CC1` [Compound 2, 1-cyclopropyl-6,8--difluoro-5-methyl-7-(1-piperazinyl)-1,4-dihydro-4-oxoquinoline-3-carboxylic acid] has an LD50 at 168 h (in vivo) greater than 2000 mg/kg, an MIC (S. pyogenes A65; [4]) of 0.39 µg/mL (≈ 1.07 µM) and an MIC (S. aureus No. 80; [5]) of 0.0125 µg/mL (≈ 0.0344 µM). For the same compound, the MIC (S. epidermidis No. 8; [6]) was 0.025 µg/mL (≈ 0.0688 µM), the MIC (E. coli NIHJ JC-2; [7]) was 0.0063 µg/mL (≈ 0.0173 µM) and the MIC (P. aeruginosa 12; [8]) was 0.2 µg/mL (≈ 0.55 µM). For the same compound, the MIC (S. marcescens S-9; [9]) was 0.1 µg/mL (≈ 0.275 µM), the MIC (E. coli P-5101; [10]) was 0.0063 µg/mL (≈ 0.0173 µM) and the MIC (S. aureus 209 JC-1; [11]) was 0.025 µg/mL (≈ 0.0688 µM). For the same compound, the MIC (S. aureus Terajima; [12]) was 0.025 µg/mL (≈ 0.0688 µM), the MIC [1, 13] was 0.1 µg/mL (≈ 0.275 µM) and the MIC [2, 14] was 0.1 µg/mL (≈ 0.275 µM). The MIC [3, 15] was 0.1 µg/mL (≈ 0.275 µM) and the MIC (C. Trachomatics G/ur 931; [16]) was 0.05 µg/mL (≈ 0.138 µM).
`O=C(O)c1cn(C2CC2)c2c(F)c(N3CCNCC3)c(F)cc2c1=O` [Compound B, 1-cyclopropyl-6,8-difluoro-7-(1-piperazinyl)-1,4-dihydro-4-oxoquinoline-3-carboxylic acid, reference compound] gave an MIC (S. pyogenes A65; [4]) of 0.39 µg/mL (≈ 1.12 µM), an MIC (S. aureus No. 80; [5]) of 0.2 µg/mL (≈ 0.573 µM) and an MIC (S. epidermidis No. 8; [6]) of 0.1 µg/mL (≈ 0.286 µM). For the same compound, the MIC (E. coli NIHJ JC-2; [7]) was 0.0063 µg/mL (≈ 0.018 µM), the MIC (P. aeruginosa 12; [8]) was 0.1 µg/mL (≈ 0.286 µM) and the MIC (S. marcescens S-9; [9]) was 0.05 µg/mL (≈ 0.143 µM). The MIC (E. coli P-5101; [10]) was 0.0063 µg/mL (≈ 0.018 µM), the MIC (S. aureus 209 JC-1; [11]) was 0.1 µg/mL (≈ 0.286 µM) and the MIC (S. aureus Terajima; [12]) was 0.1 µg/mL (≈ 0.286 µM). The MIC [1, 13] was 0.39 µg/mL (≈ 1.12 µM), the MIC [2, 14] was 0.39 µg/mL (≈ 1.12 µM) and the MIC [3, 15] was 0.39 µg/mL (≈ 1.12 µM). For the same compound, the MIC (C. Trachomatics G/ur 931; [16]) was 0.39 µg/mL (≈ 1.12 µM).

— patent EP0319906A2, “Novel quinoline derivatives, processes for preparation thereof and antibacterial agent containing them” (Dainippon Pharmaceutical Co., Ltd., priority 1987, dated 1989)
